From US6586204B2, “Apoptosis gene EI24, compositions, and methods of use” (Apoptosis Technology, Inc., priority 1996, dated 2003)

Columns and labels:
p21/WAF1 mRNA = assay: Northern blot of E1A/ras transformed murine embryonic fibroblasts, p21/WAF1 probe; format: cell-based
Protocol: (§1) Northern blot showing induction of EI24 RNA by p53 in E1A/ras transformed murine embryonic fibroblasts (MEFs). 1.0 μg of poly-A^+ RNA was loaded per lane. p53^+/+ and p53^−/− MEFs were left untreated, or treated with 50 μM etoposide for 6 hours, as indicated (lanes 1-4). Alternately, p53^−/− MEFs expressing either empty vector (pBabe Puro), or a tamoxifen-regulatable p53 (p53ER™) were left untreated, or treated with 3.3 μM tamoxifen (TMX) for 16 hours (lanes 5-8). The northern blot was hybridized sequentially with probes for EI24, p21/WAF1 and tubulin.
E1A and ras transformed mouse embryo fibroblasts and expression of the p53-ER™ fusion protein. Stable cell lines of p53^+/+ and p53^−/− MEFs expressing the oncogenes E1A and T24 H-ras were generated as described previously (Lowe S. W., Jacks T., Housman D. E. and Ruley H. E. (1994) Proc. Natl. Acad. Sci. USA, 91, 2026-2030). The plasmid for expression of the p53ER™ fusion protein, pBabe Puro p53ER™ G525R, using the retroviral vector pBabe Puro (Morgenstern J. P. and Land H. (1990) Nucl. Acids Res., 18, 3587-3596), was received as a generous gift from Trevor Littlewood (Imperial Cancer Research Fund, London). […]

NIH3T3 fibroblasts = assay: Etoposide exposure of asynchronously growing NIH3T3 fibroblasts, cell killing and microscopic observation; format: cell-based, Murine; details: 50 μM etoposide
EI24 mRNA = assay: Northern blot of E1A/ras transformed murine embryonic fibroblasts, EI24 probe; format: cell-based
Protocol: as §1
E1A and ras transformed mouse embryo fibroblasts and expression of the p53-ER™ fusion protein. Stable cell lines of p53^+/+ and p53^−/− MEFs expressing the oncogenes E1A and T24 H-ras were generated as described previously (Lowe S. W., Jacks T., Housman D. E. and Ruley H. E. (1994) Proc. Natl. Acad. Sci. USA, 91, 2026-2030). The plasmid for expression of the p53ER™ fusion protein, pBabe Puro p53ER™ G525R, using the retroviral vector pBabe Puro (Morgenstern J. P. and Land H. (1990) Nucl. Acids Res., 18, 3587-3596), was received as a generous gift from Trevor Littlewood (Imperial Cancer Research Fund, London). In brief, this plasmid contains the ˜1.3 kb BamHI fragment of human p53 from pSV53her (Roemer K. and Friedmann T. (1993) Proc. Natl. Acad. Sci. USA, 90, 9252-9256) fused to the ligand-binding domain of the murine estrogen receptor carrying a point mutation at amino acid 525 that renders the receptor unable to bind estradiol but able to bind tamoxifen or 4-hydroxy tamoxifen (Danielian P., White R., Hoare S., Fawell S. and Parker M. (1993) Mol Endocrinol, 7, 232-240; Littlewood T. D., Hancock D. C., Danielian P. S., Parker M. G. and Evan G. I. (1995) NAR, 23, 1686-1690). For induction of wild-type p53 activity, p53ER™ transfected p53^−/− cells were treated with […] tamoxifen (Sigma). […]

[1] = system: 5 kb mRNA detected by 38T19 probe; assay: Northern blot of etoposide-treated 3T3 cells, 38T19 probe; format: cell-based, Murine; details: 50 μM etoposide, 6 to 11 hours after treatment
Protocol: Induction of the 2.4 kb mRNA appeared to be maximal by 6 hours after etoposide exposure, representing a 7-fold increase. […] The levels of this mRNA were highest in untreated cells, and decreased at 6 to 11 hours after etoposide treatment, corresponding to a 4-fold reduction.

[2] = system: 2.4 kb mRNA recognized by 11G10 (EI24); assay: Northern blot of etoposide-treated 3T3 cells, 11G10 probe; details: 50 μM etoposide

Row | Structure (SMILES) | induction of WAF1 RNA (p21/WAF1 mRNA; etoposide, p53−/− MEFs, maximal level lower than in p53+/+ cells) | signs of apoptosis by microscopic observation (NIH3T3 fibroblasts; for at least 6 hours following exposure) | cell killing (NIH3T3 fibroblasts; within 24 hours, asynchronously growing NIH3T3 cells) | induction of EI24 mRNA (EI24 mRNA; etoposide 50 μM, 6 hours, E1A/ras-transformed p53+/+ cells) | induction of EI24 mRNA (EI24 mRNA; etoposide 50 μM, 6 hours, E1A/ras-transformed p53−/− cells) | reduction of 5 kb mRNA [1] | increase of 2.4 kb mRNA (EI24) ([2]; 3 hours post treatment) | increase of 2.4 kb mRNA (EI24), maximal induction ([2]; 6 hours after exposure) | induction of WAF1 mRNA (p21/WAF1 mRNA; tamoxifen treatment, p53ER p53−/− cells) | induction of EI24 mRNA (EI24 mRNA; tamoxifen, p53−/− control cell line (pBabe Puro) with empty vector)
1 | COc1cc([C@@H]2c3cc4c(cc3[C@@H](O[C@@H]3O[C@@H]5CO[C@@H](C)O[C@H]5[C@H](O)[C@H]3O)[C@H]3COC(=O)[C@H]23)OCO4)cc(OC)c1O [etoposide, Etoposide] | WAF1 RNA was induced | no obvious signs of apoptosis | kill the majority of asynchronously growing cells | further induced | No induction of EI24 | 4 fold | 4 fold | 7 fold |  | 
2 | CC/C(=C(\c1ccccc1)c1ccc(OCCN(C)C)cc1)c1ccccc1 [tamoxifen] |  |  |  |  |  |  |  |  | strongly induced | No EI24 induction
